Measured values reported in patent US7863449B2, “Modulators of muscarinic receptors” (Vertex Pharmaceuticals Incorporated, priority 2004, dated 2011).

Legend:
M1 muscarinic receptor = target: T1, M1 muscarinic receptor (Homo sapiens, UniProt P11229); assay: Functional mobilization of intracellular calcium (FLIPR), M1-CHO cells; format: cell-based; conditions: for Emax: 100% efficacy is the maximum response obtained using Carbachol as a control; for M1 Activity: M1-CHO cells, FLIPR calcium mobilization
T1 construct: expressed in transfected cells; host or cells: CHO (M1-CHO)
T1 sequence (P11229 1-460): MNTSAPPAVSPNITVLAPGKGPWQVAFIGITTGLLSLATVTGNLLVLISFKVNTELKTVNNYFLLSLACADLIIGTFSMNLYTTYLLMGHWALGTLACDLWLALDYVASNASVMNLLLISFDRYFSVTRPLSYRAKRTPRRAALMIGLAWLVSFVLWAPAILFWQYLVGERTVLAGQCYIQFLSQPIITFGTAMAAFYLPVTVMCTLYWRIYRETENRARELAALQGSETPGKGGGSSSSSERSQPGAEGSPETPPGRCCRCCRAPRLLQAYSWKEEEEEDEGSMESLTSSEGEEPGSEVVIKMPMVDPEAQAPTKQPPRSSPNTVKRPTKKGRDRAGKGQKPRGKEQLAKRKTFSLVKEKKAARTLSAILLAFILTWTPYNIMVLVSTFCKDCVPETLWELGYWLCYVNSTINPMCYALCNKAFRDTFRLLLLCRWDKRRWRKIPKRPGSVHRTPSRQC
Summary of the method: (§1)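 Calcium flux recorded 60 s (ex 488, em 540 nm) in dye-loaded M1- or M4-CHO cells in pH 7.4 buffer with 1 mM probenecid. Inhibition measured against carbachol EC80 after 15 min compound pre-incubation or co-addition; agonism measured by compound addition alone. Final DMSO 0.5%.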

M4 muscarinic receptor = target: T2, M4 muscarinic receptor (Homo sapiens, UniProt P08173); assay: Functional mobilization of intracellular calcium (FLIPR), M4-CHO cells; format: cell-based; conditions: for Emax: 100% efficacy is the maximum response obtained using Carbachol as a control; for M4 Activity: M4-CHO cells, FLIPR calcium mobilization
T2 construct: expressed in transfected cells; host or cells: CHO (M4-CHO)
T2 sequence (P08173 1-479): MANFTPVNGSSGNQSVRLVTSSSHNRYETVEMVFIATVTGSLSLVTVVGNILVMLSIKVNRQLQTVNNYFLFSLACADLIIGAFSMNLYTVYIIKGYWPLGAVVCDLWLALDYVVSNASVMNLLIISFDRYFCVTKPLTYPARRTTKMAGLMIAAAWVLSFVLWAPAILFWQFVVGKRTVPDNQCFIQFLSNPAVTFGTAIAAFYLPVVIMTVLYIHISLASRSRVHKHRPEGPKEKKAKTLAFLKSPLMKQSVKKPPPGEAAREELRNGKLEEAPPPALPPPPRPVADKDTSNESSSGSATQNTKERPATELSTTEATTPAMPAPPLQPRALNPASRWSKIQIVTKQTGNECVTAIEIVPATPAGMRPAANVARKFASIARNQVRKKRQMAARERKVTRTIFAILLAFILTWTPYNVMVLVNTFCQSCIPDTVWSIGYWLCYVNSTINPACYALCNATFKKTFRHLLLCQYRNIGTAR
Summary of the method: as §1

Row | Structure (SMILES) | Emax (M1 muscarinic receptor) [%] | M1 Activity (M1 muscarinic receptor) | Emax (M4 muscarinic receptor) [%] | M4 Activity (M4 muscarinic receptor)
1 | CC(=O)N1Cc2ccccc2C2(CCN(C3(C)CCCCC3)CC2)C1 [compound 4, 1-(1′-(1-methylcyclohexyl)-1H-spiro[isoquinoline-4,4′-piperidine]-2(3H)-yl)ethanone] | 25 to 100 | ++ (activity was measured to be from 1.0 μM to 5.0 μM) | 25 to 100 | +++ (activity was measured to be less than 1.0 μM)
2 | CC(=O)N1Cc2ccccc2C2(CCN(Cc3ccoc3)CC2)C1 [compound 139] | < 25 | + (activity was measured to be greater than 5.0 μM) | < 25 | + (activity was measured to be greater than 5.0 μM)
3 | CCOC(=O)N1CCC(CN2CCC3(CC2)CN(C(=O)c2cccs2)Cc2ccccc23)CC1 [compound 124] | 25 to 100 | +++ (activity was measured to be less than 1.0 μM) | 25 to 100 | +++ (activity was measured to be less than 1.0 μM)
4 | CCOC(=O)N1C2CCC1CC(N1CCC3(CC1)CN(C(=O)c1cccnc1)Cc1ccccc13)C2 (stereo not drawn) [compound 17] | 25 to 100 | +++ (activity was measured to be less than 1.0 μM) | 25 to 100 | +++ (activity was measured to be less than 1.0 μM)
5 | CCOC(=O)N1CCC(N2CCC3(CC2)CN(C(=O)C2CCC2)Cc2ccccc23)CC1 [compound 250] | 25 to 100 | +++ (activity was measured to be less than 1.0 μM) | 25 to 100 | +++ (activity was measured to be less than 1.0 μM)
6 | CCOC(=O)N1C2CCC1CC(N1CCC3(CC1)CN(C(=O)N1CCCCC1)Cc1ccccc13)C2 (stereo not drawn) [compound 344] | 25 to 100 | +++ (activity was measured to be less than 1.0 μM) | 25 to 100 | +++ (activity was measured to be less than 1.0 μM)
7 | CN(C)S(=O)(=O)N1Cc2ccccc2C2(CCN(C3CC4CCC(C3)N4C(=O)O[C@@H]3CCOC3)CC2)C1 (stereo partly drawn) [compound 3] | 25 to 100 | +++ (activity was measured to be less than 1.0 μM) | 25 to 100 | +++ (activity was measured to be less than 1.0 μM)
8 | COc1ccccc1CN1CCC2(CC1)CN(C(C)=O)Cc1ccccc12 [compound 150] | < 25 | + (activity was measured to be greater than 5.0 μM) | < 25 | + (activity was measured to be greater than 5.0 μM)
9 | CN(C)C(=O)N1Cc2ccccc2C2(CCN(C3CC4CCC(C3)N4C(=O)OC3CCC3)CC2)C1 (stereo not drawn) [compound 327] | 25 to 100 | +++ (activity was measured to be less than 1.0 μM) | 25 to 100 | +++ (activity was measured to be less than 1.0 μM)
10 | COC(=O)N1Cc2ccccc2C2(CCN(C3CC4CCC(C3)N4C(=O)OC(C)C)CC2)C1 (stereo not drawn) [compound 206] | 25 to 100 | +++ (activity was measured to be less than 1.0 μM) | 25 to 100 | +++ (activity was measured to be less than 1.0 μM)
11 | O=C1c2ccccc2C2(CCN(CC3CCCCC3)CC2)N1Cc1ccccc1 [compound 52] | 25 to 100 | + (activity was measured to be greater than 5.0 μM) | < 25 | + (activity was measured to be greater than 5.0 μM)
12 | CC(=O)N1Cc2ccccc2C2(CCN(Cc3ccc(F)cc3F)CC2)C1 [compound 312] | < 25 | + (activity was measured to be greater than 5.0 μM) | < 25 | + (activity was measured to be greater than 5.0 μM)
13 | CCOC(=O)N1C2CCC1CC(N1CCC3(CC1)CN(C(=O)OC1CCCC1)Cc1ccccc13)C2 (stereo not drawn) [compound 14] | 25 to 100 | +++ (activity was measured to be less than 1.0 μM) | 25 to 100 | +++ (activity was measured to be less than 1.0 μM)
14 | CC(=O)N1Cc2ccccc2C2(CCN(C3CCSCC3)CC2)C1 [compound 268] | 25 to 100 | ++ (activity was measured to be from 1.0 μM to 5.0 μM) | 25 to 100 | ++ (activity was measured to be from 1.0 μM to 5.0 μM)
15 | CCOC(=O)N1C2CCC1CC(N1CCC3(CC1)CN(C(=O)c1cnoc1C)Cc1ccccc13)C2 (stereo not drawn) [compound 213] | 25 to 100 | +++ (activity was measured to be less than 1.0 μM) | 25 to 100 | +++ (activity was measured to be less than 1.0 μM)
16 | CCOC(=O)N1C2CCC1CC(N1CCC3(CC1)CN(S(=O)(=O)c1cccc(F)c1)Cc1ccccc13)C2 (stereo not drawn) [compound 324] | 25 to 100 | +++ (activity was measured to be less than 1.0 μM) | 25 to 100 | +++ (activity was measured to be less than 1.0 μM)
17 | CCCOC(=O)N1Cc2ccccc2C2(CCN(C3CC4CCC(C3)N4C(=O)OCC)CC2)C1 (stereo not drawn) [compound 99] | 25 to 100 | +++ (activity was measured to be less than 1.0 μM) | 25 to 100 | +++ (activity was measured to be less than 1.0 μM)
18 | CCNC(=O)N1Cc2ccccc2C2(CCN(CC3CCN(C(=O)OCC)CC3)CC2)C1 [compound 91] | 25 to 100 | +++ (activity was measured to be less than 1.0 μM) | 25 to 100 | +++ (activity was measured to be less than 1.0 μM)
19 | CCOC(=O)N1CCC(N2CCC3(CC2)CN(CC#Cc2ccccc2)Cc2ccccc23)CC1 [compound 9] | 25 to 100 | +++ (activity was measured to be less than 1.0 μM) | 25 to 100 | +++ (activity was measured to be less than 1.0 μM)
20 | CCOC(=O)N1C2CCC1CC(N1CCC3(CC1)CN(C(=O)C1CCC1)Cc1ccccc13)C2 (stereo not drawn) [compound 319] | 25 to 100 | +++ (activity was measured to be less than 1.0 μM) | 25 to 100 | +++ (activity was measured to be less than 1.0 μM)
21 | CC(=O)N1Cc2ccccc2C2(CCN(Cc3ccc(C(C)O)cc3)CC2)C1 (stereo not drawn) [compound 335] | < 25 | + (activity was measured to be greater than 5.0 μM) | < 25 | + (activity was measured to be greater than 5.0 μM)
22 | CCOC(=O)N1CCC(N2CCC3(CC2)CN(C(=O)CC(F)(F)F)Cc2ccccc23)CC1 [compound 209] | 25 to 100 | +++ (activity was measured to be less than 1.0 μM) | 25 to 100 | +++ (activity was measured to be less than 1.0 μM)
23 | COC(=O)c1ccccc1CN1CCC2(CC1)CN(C(C)=O)Cc1ccccc12 [compound 118] | < 25 | + (activity was measured to be greater than 5.0 μM) | < 25 | + (activity was measured to be greater than 5.0 μM)
24 | CC(=O)N1Cc2ccccc2C2(CCN(CC3CCC(C)=CC3C)CC2)C1 (stereo not drawn) [compound 2] | < 25 |  | < 25 | 
25 | CC(C)OC(=O)N1C2CCC1CC(N1CCC3(CC1)CN(S(=O)(=O)N(C)C)Cc1ccccc13)C2 (stereo not drawn) [compound 241] | 25 to 100 | +++ (activity was measured to be less than 1.0 μM) | 25 to 100 | +++ (activity was measured to be less than 1.0 μM)
26 | CCOC(=O)N1CCC(CN2CCC3(CC2)CN(C(=O)c2nc(C)oc2C)Cc2ccccc23)CC1 [compound 275] | 25 to 100 | +++ (activity was measured to be less than 1.0 μM) | 25 to 100 | +++ (activity was measured to be less than 1.0 μM)
27 | CC(=O)N1Cc2ccccc2C2(CCN(Cc3cccnc3)CC2)C1 [compound 274] | < 25 | + (activity was measured to be greater than 5.0 μM) | < 25 | + (activity was measured to be greater than 5.0 μM)
28 | CC(=O)N1Cc2ccccc2C2(CCN(Cc3cc(C)c(C)o3)CC2)C1 [compound 101] | < 25 | + (activity was measured to be greater than 5.0 μM) | < 25 | + (activity was measured to be greater than 5.0 μM)
29 | CCOC(=O)N1C2CCC1CC(N1CCC3(CC1)CN(C(=O)OC(C)C)Cc1ccccc13)C2 (stereo not drawn) [compound 8] | 25 to 100 | +++ (activity was measured to be less than 1.0 μM) | 25 to 100 | +++ (activity was measured to be less than 1.0 μM)
